The values below come from patent US20020192201A1, “Crohn's disease treatment methods” (priority 1998, published 2002).

Like-named read-outs stand apart in the source and are kept apart here.

Test [1] concerns M. para. isolated from resected tissue of CD patients. The test is described as follows: in vitro test of seven antituberculosis drugs against M. para. using the Bactec system. The class given is cell-based, Mycobacterium paratuberculosis. The settings on record: for MIC50 (50% M. para. cells inhibited or killed) / MIC99.9 (99.9% M. para. cells inhibited or killed): M. para. from resected tissue of CD patients.

The subject of test [2] is MAP-positive and MAP-negative Crohn's disease patients (ELISA). The test is described as follows: comparison of age-matched MAP-positive and MAP-negative patients at 1 year (CDAI). The class given is in vivo, human. From the text: Another study was undertaken to compare age-matched MAP-positive and -negative patients utilizing ELISA analysis forserum antibodies to MAP. 10 MAP-positive and 10 MAP-negative patients were compared at 1 year, utilizing the CDAI score as a primary endpoint. The elimination of corticosteroids and the need for immunotherapy were considered secondary endpoints. […] Steroids were eliminated in 8 of 10 patients, with 2 patients requiring low-dose steroids. In the MAP-negative group at 1 year, 6 of 10 patients were in complete remission, with an entry CDAI score of 308 and an exit score of 179. Of the responsive patients, 3 of 6 required additional immunotherapy, and 3 remained on antibiotics alone.

As for `CC[C@H]1OC(=O)[C@H](C)[C@@H](O[C@H]2C[C@@](C)(OC)[C@@H](O)[C@H](C)O2)[C@H](C)[C@@H](O[C@@H]2O[C@H](C)C[C@H](N(C)C)[C@H]2O)[C@](C)(OC)C[C@@H](C)C(=O)[C@H](C)[C@@H](O)[C@]1(C)O` [CLR, clarithromycin], the “Status (resistant/sensitive)” value in test [1] is listed as “S”. For the same molecule, in test [1] (Bactec system), the “MIC50 (50% M. para. cells inhibited or killed)” value is under 0.25 µg/mL and the “MIC99.9 (99.9% M. para. cells inhibited or killed)” value is under 1.25 µg/mL.
In the case of `CC[C@@H](CO)NCCN[C@@H](CC)CO` [EMB, ethambutol], in test [1] (Bactec system), the “Status (resistant/sensitive)” value is reported as “S”, the “MIC50 (50% M. para. cells inhibited or killed)” value was under 0.5 µg/mL and the “MIC99.9 (99.9% M. para. cells inhibited or killed)” value is under 3.0 µg/mL.
As to `NNC(=O)c1ccncc1` [INH, isoniazid], in test [1] (Bactec system), the “Status (resistant/sensitive)” value is listed as “R”, the “MIC50 (50% M. para. cells inhibited or killed)” value was over 20 µg/mL and the “MIC99.9 (99.9% M. para. cells inhibited or killed)” value was over 20 µg/mL.
Consider `NC[C@H]1O[C@H](O[C@H]2[C@H](O)[C@@H](O[C@H]3O[C@H](CO)[C@@H](O)[C@H](N)[C@H]3O)[C@H](N)C[C@@H]2N)[C@H](O)[C@@H](O)[C@@H]1O` [KM, kanamycin], for which, in test [1] (Bactec system), the “Status (resistant/sensitive)” value is given as “R”, the “MIC50 (50% M. para. cells inhibited or killed)” value was under 1.3 µg/mL and the “MIC99.9 (99.9% M. para. cells inhibited or killed)” value was under 3.0 µg/mL.
On to `NC(=O)c1cnccn1` [PZA, pyrazinamide], for which, in test [1] (Bactec system), the “Status (resistant/sensitive)” value was “R”, the “MIC50 (50% M. para. cells inhibited or killed)” value was over 20 µg/mL and the “MIC99.9 (99.9% M. para. cells inhibited or killed)” value was over 20 µg/mL.
As to `CO[C@H]1/C=C/O[C@@]2(C)Oc3c(C)c(O)c4c(O)c(c(/C=N/N5CCN(C)CC5)c(O)c4c3C2=O)NC(=O)/C(C)=C\C=C\[C@H](C)[C@H](O)[C@@H](C)[C@@H](O)[C@@H](C)[C@H](OC(C)=O)[C@@H]1C` [RIF, Rifampicin], in test [1] (Bactec system), the “Status (resistant/sensitive)” value is “R”, the “MIC50 (50% M. para. cells inhibited or killed)” value was over 1.0 µg/mL and the “MIC99.9 (99.9% M. para. cells inhibited or killed)” value is over 2.6 µg/mL.
The corresponding values for `[H]/N=C(/N)N[C@H]1[C@H](O)[C@@H](O)[C@H](O[C@@H]2O[C@@H](C)[C@](O)(C=O)[C@H]2O[C@@H]2O[C@@H](CO)[C@H](O)[C@@H](O)[C@@H]2NC)[C@@H](N/C(N)=N\[H])[C@@H]1O` [ST, streptomycin] are “R”, over 0.4 µg/mL and over 3.0 µg/mL.
As for infliximab, in test [2], the “outcome in patients unresponsive to antibiotics” value is “induction of remission in all patients”.
